Test results from patent publication US4265882A, “Sulphur analogs of penicillins having a nucleophile substituted in the 6 and 7 position, respectively” (Massachusetts Institute of Technology, priority 1977, dated 1981).

How the values were obtained:
[1] = test system: certain Gram-negative organisms; conditions: background; cited from earlier work
[2] = test system: certain resistant staphylococci; conditions: background; cited from earlier work
[3] = literature; cited from earlier work
[4] = test system: Bacillus subtillis ATCC 6051; experiment: Minimum inhibitory concentration in vitro, Bacillus subtillis; type: cell-based; set-up: unit not given here; conditions: free acids tested after removal of ester protective group
Procedure: (§1) General Procedure for Removing Protective Groups
(§2) The ester (100-200 mg) is dissolved in approx. 10 ml of 90% HOAc and the solution cooled to 0° before 1-1.5 g of zinc dust is added. The mixture is stirred at 0° for 3-5 hr. Removal of the zinc by filtration through celite into a flask containing 100 ml of ice-H2 O and washing the zinc with methylene chloride (50 ml) yielded a two-phase system. Separation of the organic layer, extraction of the aqueous layer with several methylene chloride-zinc washings, drying (MgSO4) and removal of the solvent under reduced pressure (no heat) afforded the free acid.
(§3) For purification (if required) the acid was dissolved in CH2 Cl2 and extracted with aqueous NaHCO3. The aqueous layer, after being extracted several times with CH2 Cl2, was cooled with ice and acidified with dilute HCl. Extraction with CH2 Cl2, drying (MgSO4) and removal of the solvent under reduced pressure (no heat) gave the pure acid.
(§4) A flask, charged with the ester, is submerged in an ice bath 5-10 min. before cold trifluoroacetic acid is added. The solution is stirred at 0° for 30-45 min. and then the solvent removed by distillation under reduced pressure (2-3 mm) with the reaction flask still submerged in the ice bath. The residue is freeze dried from benzene.
If purification is required, it is done in the same manner as described for removal of the trichloroethyl group (see above).
The benzhydryl group is removed in the same manner as described for the removal of the t-butyl group, above. After freeze drying the residue was purified in the following manner. The acid was dissolved in methylene chloride and extracted with aqueous NaHCO3. The aqueous layer, after being extracted several times with methylene chloride, was partitioned with methylene chloride, cooled with ice, and acidified with dilute HCl. Extraction with methylene chloride, drying (MgSO4), and removal of the solvent under reduced pressure (no heat) gave the pure acid.
In order to remove the protective benzyhydryl group from benzyhydryl-6β-(triophene-2-acetylthio)-6α-methoxypenicillanate, the following procedure was found necessary. The ester (70-80 mg) is dissolved in 10 ml of CH2 Cl2 and the solution cooled to -77° (CO2 -acetone) before the addition of 0.5 ml of trifluoroacetic acid. The solution was warmed to approximately -10° (NaCl-H2 O-ice) and stirred at that temperature for 5-6 hr. The solution was cooled to -77° and 75-100 ml of benzene added. After the contents of the flask solidified the acid was isolated by freeze drying and bioassayed without purification.
The protective groups of the penicillin and cephalosporin esters were removed as described above and the resulting free acids were tested in vitro for bioactivity.

Sarcina lutea = experiment: Minimum inhibitory concentration in vitro, Sarcina lutea; type: cell-based; conditions: free acids tested after removal of ester protective group
Procedure: as §1, §2, §3, §4
(§5) If purification is required, it is done in the same manner as described for removal of the trichloroethyl group (see above). […]

[5] = test system: Staphylococcus aerus (Roche); experiment: Minimum inhibitory concentration in vitro, Staphylococcus aerus (Roche); type: cell-based; set-up: unit not given here; conditions: free acids tested after removal of ester protective group
Procedure: as §1, §2, §3, §4, §5

## CC1(C)S[C@@H]2[C@H](NC(=O)[C@H](N)c3ccccc3)C(=O)N2[C@H]1C(=O)O [ampicillin]
[1]
  broadened spectra of activity, Gram-negative organisms: broadened the spectra to activity to include use against certain Gram-negative organisms

## COc1cccc(OC)c1C(=O)N[C@@H]1C(=O)N2[C@@H]1SC(C)(C)[C@@H]2C(=O)O [methicillin]
[2]
  activity against certain resistant staphylococci: good activity

## CC1(C)S[C@@H]2[C@@H](OC(=O)COc3ccccc3)C(=O)N2[C@H]1C(=O)O [6α-phenoxyacetoxypenicillanic acid]
[3]
  biological activity: exhibits no biological activity

## COC(=O)SC1(OC)C(=O)N2C(C(=O)OC(C)(C)C)=C(COC(C)=O)CSC21 (stereo not drawn) [t-Butyl 7β-(methoxycarbothio)-7α-methoxycephalosporanate]
[4]
  Minimum Inhibitory Concentration: 50
Sarcina lutea
  Minimum Inhibitory Concentration: 25 mg/mL
[5]
  Minimum Inhibitory Concentration: 50

## COC1(SC(=O)OCC(Cl)(Cl)Cl)C(=O)N2C(C(=O)OC(c3ccccc3)c3ccccc3)C(C)(C)SC21 (stereo not drawn) [Benzhydryl 6β-(β,β,β-trichloroethoxycarbothio)6α-methoxypenicillanate]
[4]
  Minimum Inhibitory Concentration: 100

## CC1(C)S[C@@H]2[C@H](NC(=O)C(C(=O)O)c3ccccc3)C(=O)N2[C@H]1C(=O)O (some centres unmarked) [carbenicillin]
[1]
  broadened spectra of activity, Gram-negative organisms: broadened the spectra to activity to include use against certain Gram-negative organisms

## COC1(SC(=O)Cc2cccs2)C(=O)N2C(C(=O)OC(C)(C)C)=C(COC(C)=O)CSC21 (stereo not drawn) [tert-Butyl 7β-(thiophene-2-acetylthio)-7α-methoxycephalosporanate]
[4]
  Minimum Inhibitory Concentration: 50

## COC1(SC(=O)Cc2ccccc2)C(=O)N2C(C(=O)OC(C)(C)C)=C(COC(C)=O)CSC21 (stereo not drawn) [tert-Butyl 7β-(phenylacetylthio)-7α-methoxycephalosporanate]
[4]
  Minimum Inhibitory Concentration: < 6.25
Sarcina lutea
  Minimum Inhibitory Concentration: 100 mg/mL
